Eight compounds from US7388002B2, “Nucleosides, preparation thereof and use as inhibitors of RNA viral polymerases” (BioCryst Pharmaceuticals, Inc., priority 2001, dated 2008) can be followed below.

SMILES strings stand for the structures.

The assay concerns stably HCV RNA-replicating cell line, AVA5. The experiment in a line: Antiviral Activity (HCV Replicon Assay). It counts as cell-based. To be noted: intracellular HCV RNA levels (blot hybridization, normalized to B-actin RNA) in AVA5 cells (Huh7-derived), compound once daily for three days, read 24 hours after last dose. The procedure:
HCV NS5B Polymerase Assay
Antiviral activity of the test compounds is assessed (Okuse et al., Antiviral Res. 2005, 65, 23-34) in the stably HCV RNA-replicating cell line, AVA5, derived by transfection of the human hepatoblastoma cell line, Huh7 (Blight et al., Sci. 2000, 290, 1972). Compounds are added to dividing cultures once daily for three days. Media is changed with each addition of compound. Cultures generally start the assay at 30-50% confluence and reach confluence during the last day of treatment. Intracellular HCV RNA levels and cytotoxicity are assessed 24 hours after the last dose of compound.
Triplicate cultures for HCV RNA levels (on 48-well and 96-well plates) and cytotoxicity (on 96-well plates) are used. A total of six untreated control cultures, and triplicate cultures treated with α-interferon and ribavirin serve as positive antiviral and toxicity controls.
Intracellular HCV RNA levels are measured using a conventional blot hybridization method in which HCV RNA levels are normalized to the levels of B-actin RNA in each individual culture (Okuse et al., Antivir. Res. 2005, 65, 23-34). Cytotoxicity is measured using a neutral red dye uptake assay (Korba and Gerin, Antivir. Res. 1992, 19, 55). HCV RNA levels in the treated cultures are expressed as a percentage of the mean levels of RNA detected in untreated cultures.
On the technique in general: A replicon is a self-replicating genome or part of one, used to study replication in cells.
For `CC(O)C(COCP(=O)(OCC(=O)OC(C)(C)C)OCC(=O)OC(C)(C)C)n1cnc2c(-c3ccccc3)ncnc21` (racemic) [Compound 79a, (±)-9-[(1-Hydroxyethyl)(3-(di-tert-butyloxycarbonylmethylphosphono)methoxy)ethyl]-6-phenylpurine], the % Inhibition (usually the percentage by which the read-out fell short of the control) at 10 μM was 48%.

As for `CC(C)(C)OC(=O)COP(=O)(COCCC(CO)n1cnc2c(-c3ccsc3)ncnc21)OCC(=O)OC(C)(C)C` (racemic) [Compound 76b, (±)-9-[(1-Hydroxymethyl)(3-(di-tert-butyloxycarbonylmethylphosphono)methoxy)propyl]-6-(3-thiophenyl)purine], the “% Inhibition at 10 μM” value was 18%.

Consider `CC(O)CC(COCP(=O)(OCOC(=O)C(C)(C)C)OCOC(=O)C(C)(C)C)n1cnc2c(N)ncnc21` (racemic) [Compound 56f, (±)-9-[1-[(Di-tert-butylcarbonyloxymethylphosphonomethoxy)methyl][(3-hydroxy)butyl]adenine], for which the “% Inhibition at 10 μM” value came to 62%.

On to `CC(C)(C)OC(=O)COP(=O)(COCCC(CO)n1cnc2c(NC3CCCC3)ncnc21)OCC(=O)OC(C)(C)C` (racemic) [Compound 73k, (±)-9-[(1-Hydroxymethyl)(3-(di-tert-butyloxycarbonylmethylphosphono)methoxy)propyl]-6-cyclopentylaminopurine], for which the “% Inhibition at 10 μM” value is 36%.

Consider `CC(C)(C)OC(=O)COP(=O)(COCCC(CN)n1cnc2c(N)ncnc21)OCC(=O)OC(C)(C)C` (racemic) [Compound 34d, (±)-9-[(1-Aminomethyl)(3-(di-tert-butyloxycarbonylmethylphosphono)methoxy)propyl]-adenine], for which the “% Inhibition at 10 μM” value worked out at 60%.

Take `CC(C)(C)OC(=O)COP(=O)(COCCC(CCO)n1cnc2c(N)ncnc21)OCC(=O)OC(C)(C)C` (racemic) [Compound 34e, (±)-9-[(1-(2-Hydroxy)ethyl)(3-(di-tert-butyloxycarbonylmethylphosphono)methoxy)propyl]-adenine]: the “% Inhibition at 10 μM” value stood at 41%.

Regarding `C=C(CCOCP(=O)(OCC(=O)OC(C)(C)C)OCC(=O)OC(C)(C)C)n1cnc2c(N)ncnc21` [Compound 34h, (±)-9-[(1-Methylene)(3-(di-tert-butyloxycarbonylmethylphosphono)methoxy)propyl]-adenine], the “% Inhibition at 10 μM” value is reported as 35%.

With `CC(C)(C)OC(=O)COP(=O)(COCCC(CO)n1cnc2c(-c3ccccc3)ncnc21)OCC(=O)OC(C)(C)C` (racemic) [Compound 76a, (±)-9-[(1-Hydroxymethyl)(3-(di-tert-butyloxycarbonylmethylphosphono)methoxy)propyl]-6-phenylpurine], the “% Inhibition at 10 μM” value worked out at 35%.
